Assay [1] addresses T1, HIS-tagged RORγ-LBD protein (Homo sapiens, UniProt P51449).
T1 construct: made in house; host or cells: SF9 cells, baculovirus expression system; the lysate was used
T1 sequence (P51449 269-508 limits assumed): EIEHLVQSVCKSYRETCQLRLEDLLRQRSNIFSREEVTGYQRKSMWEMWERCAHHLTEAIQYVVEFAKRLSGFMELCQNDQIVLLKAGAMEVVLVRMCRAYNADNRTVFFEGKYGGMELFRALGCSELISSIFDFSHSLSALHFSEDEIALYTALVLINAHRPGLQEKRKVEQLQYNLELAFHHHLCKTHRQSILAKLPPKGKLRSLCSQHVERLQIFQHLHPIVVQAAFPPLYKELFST
Kind of assay: RORγ-Ligand Binding Domain (LBD) TR-FRET Assay. Type of assay: biochemical. Conditions: for TR-FRET Assay Max Response: upper plateau of 4-parameter fit, signal in the absence of ursolic acid or test compound set as 100; for EC50: with 2 μM RORγ antagonist ursolic acid, biotinylated SRC1 LXXLL peptide, ratio 665 nm/615 nm. As to the method: (§1) Exemplary compounds from the above Examples were tested for ability to increase RORγ activity using (i) a RORγ-Ligand Binding Domain (LBD) TR-FRET Assay, and (ii) a Gal4-RORγ Luciferase Reporter Assay in HEK-293T Cells. Assay procedures and results are described below.
Part I—Procedures for RORγ-Ligand Binding Domain TR-FRET Assay
HIS-tagged RORγ-LBD protein was expressed in SF9 cells using a baculovirus expression system. The lysate was diluted in assay buffer (50 mM Tris pH 7.0, 50 mM KCl, 1 mM EDTA, 0.1 mM DTT, 0.01% BSA) to obtain RORγ-LBD final concentration of −3 nM in a 384-well assay plate (need to titrate for each batch of protein).
A stock of biotinylated-LXXLL peptide from coactivator SRC1 (Biotin-[…]) was prepared in assay buffer and added to each well (200 nM final concentration). A solution of Europium tagged anti-HIS antibody (0.6 nM final concentration) and APC-conjugated streptavidin (30 nM final concentration) were also added to each well. RORγ antagonist ursolic acid was also included at a final concentration of 2 μM. Compounds were diluted in DMSO and further diluted in assay buffer with a final DMSO concentration at 1%.
The final assay mixture was incubated overnight at 4° C. or 2 hours at room temperature, and the fluorescence signal was measured on an Envision plate reader: (Excitation filter=340 nm; APC emission=665 nm; Europium emission=615 nm; dichroic mirror=D400/D630; delay time=100 μs, integration time=200 μs). 50% Effective concentration (EC50) values for test compounds were calculated from the quotient of the fluorescence signal at 665 nm divided by the fluorescence signal at 615 nm. The quotient of the fluorescence signals in the absence of ursolic acid or test compound is set as 100. Max Response is defined as the upper plateau in the signal as determined by line-fit using a 4-parameter logistic model in PRISM (GraphPad).
(In general: In TR-FRET formats the signal depends on donor and acceptor labels being close together.)

A further assay concerns the target T2, Gal4-RORγ-LBD (Homo sapiens, UniProt P51449).
T2 construct: expressed in transfected cells
T2 sequence (P51449 269-508 limits assumed): T1 sequence (P51449 269-508 limits assumed)
Kind of assay: Gal4-RORγ Luciferase Reporter Assay in HEK-293T Cells. The settings on record: for EC50: HEK-293 cells, with 2 μM ursolic acid, incubated overnight, luciferase readout; for Gal4-RORγ Assay Max Response: upper plateau of 4-parameter fit, luciferase signal in the absence of ursolic acid or test compound defined at 100. Type of assay: cell-based. On the procedure: as §1
Part II—Procedures for Gal4-RORγ Luciferase Reporter Assay in HEK-293T Cells
Transfection of HEK-293 Cells
In the following protocol, HEK-293 cells were transfected with a construct comprising the Gal4 DNA binding domain fused to the ligand binding domain of RORγ (Gal4-RORγ-LBD) in a pcDNA3.1neo plasmid, and also with a reporter construct comprising pGL4.31 Gal4-luciferase (Promega). Control cells were prepared similarly using empty pcDNA3.1neo and pGL4.31 vectors.
Trans-IT reagent (Mirus, 60 μL) at room temperature was added drop wise to OptiMEM (Invitrogen, 1.5 ml). This reagent mixture was mixed by inversion then incubated for 5 to 30 minutes at room temperature. It then was added to a solution of both expression vectors (5 μg each), mixed, and incubated at room temperature for about 20 minutes. HEK-293 cells were harvested from incubation flasks by removing the media, treating with TrypLE Express (Invitrogen), and incubating until the cells detached from the bottom of the flask (approximately 2-5 minutes). 10 Million cells were collected by centrifugation and re-suspended in 10 mL of Dulbecco's Modified Eagle Medium, High Glucose (DMEM, Invitrogen) containing 10% Fetal Bovine Serum and 100 IU each of penicillin and streptomycin. The re-suspended cells and the transfection mixture were added to a T75 flask, mixed and incubated overnight at 37° C. and 5% CO2.
The cells were harvested as described above, counted, and centrifuged to obtain the desired number of cells, then re-suspended in complete growth media at 0.75×10^6 cells/mL. The RORγ antagonist, ursolic acid, was added to the cells at a final concentration of 2 μM. Cells were plated at 20 μL of cell suspension/well (10,000-15,000 cells/well) in white tissue culture treated 384 well plates. Test compounds were dissolved at 10 mM in DMSO then diluted into complete growth medium to 5× the final intended test concentration. These drug stock solutions, 5 μL/well were added to the tissue culture plate. The final DMSO concentration was 0.2%. The plates were briefly centrifuged then incubated overnight at 37° C. and 5% CO2. To conduct the assay, the tissue culture plates were allowed to equilibrate to room temperature and One-Glo luciferase reagent (Promega, 25 μL/well) was added. The plates were briefly centrifuged then incubated at room temperature for 10 minutes. The luciferase intensity was read on an Envision plate reader (Perkin Elmer). RORγ activity was determined relative to controls and plotted as a function of test compound concentration using PRISM (GraphPad) to determine a 50% effective concentration (EC50). The luciferase signal in the absence of ursolic acid or test compound is defined at 100. The Max Response is the upper plateau in the signal as determined by line-fit using a 4-parameter logistic model in PRISM (GraphPad).
Background: Reporter assays use an easily measured gene product as a stand-in for the process of interest.

Results on four compounds are retold here after patent publication US10189777B2, “Benzenesulfonamido and related compounds for use as agonists of RORγ and the treatment of disease” (Lycera Corporation, priority 2014, dated 2019).

What is called EC50 is the concentration that produces a half-maximal response. With `CCN(c1cccc(OCc2cc(Cl)ccc2Cl)c1)S(=O)(=O)c1cccc(C(F)(F)F)c1`, in assay [1], the “TR-FRET Assay Max Response” value is recorded as “**** (The symbol “****” indicates a value greater than 200)” and the EC50 is less than 500 nM. Further, at Gal4-RORγ-LBD, the EC50 is 5000 to 10000 nM and the “Gal4-RORγ Assay Max Response” value is “*** (The symbol “***” indicates a value in the range of greater than 150 to 200)”.

Take `CCC(c1ccc(OCc2c(F)cccc2Cl)cc1)S(=O)(=O)c1ccc(Cl)cc1` (stereo not shown): in assay [1], the “TR-FRET Assay Max Response” value is recorded as “*** (The symbol “***” indicates a value in the range of greater than 150 to 200)” and the EC50 is less than 500 nM. On Gal4-RORγ-LBD, the EC50 lay within 500 to 5000 nM and the “Gal4-RORγ Assay Max Response” value is listed as “* (The symbol “*” indicates a value in the range of 70 to 90)”.

For the compound `CCN(c1cccc(OCc2c(Cl)cccc2Cl)c1)S(=O)(=O)c1cccc(C(F)(F)F)c1`, in assay [1], the “TR-FRET Assay Max Response” value is “*** (The symbol “***” indicates a value in the range of greater than 150 to 200)” and the EC50 was less than 500 nM. At Gal4-RORγ-LBD, the EC50 was in the range of 500 to 5000 nM and the “Gal4-RORγ Assay Max Response” value is “** (The symbol “**” indicates a value in the range of greater than 90 to 150)”.

With `CCN(c1cccc(OC2CCc3cccc(Cl)c32)c1)S(=O)(=O)c1cccc(C(F)(F)F)c1` (stereo not shown), in assay [1], the “TR-FRET Assay Max Response” value is listed as “*** (The symbol “***” indicates a value in the range of greater than 150 to 200)” and the EC50 is less than 500 nM. Moreover, on Gal4-RORγ-LBD, the EC50 was 5000 to 10000 nM and the “Gal4-RORγ Assay Max Response” value is “*** (The symbol “***” indicates a value in the range of greater than 150 to 200)”.
